Measurements from patent US10722503B2, “Glitazones for topical application” (priority 2017, dated 2020).

Columns and labels:
SEB-1 sebocytes = test: In vitro treatment of cultured sebocytes, intracellular lipids (ADIPORED fluorescence normalized to DAPI cell count); type: cell-based; conditions: formulation similar to that of Example 1, glitazone substituted for pioglitazone
Experimental: Cultured SEB-1 sebocytes (Xia et al., Dermato-Endocrinology, 1(2):92-95 (2009)) were treated with the pioglitazone formulation of Example 1. Sebocytes were cultured in 96 wells plates (2500 cells/well), until confluency. Plates were washed twice with warm sterile PBS and then incubated (at 37° C. and 5% CO2) for another 48 hours after treating them with the pioglitazone formulation in treatment media. After 48 hours, media was carefully removed from the plates and, after washing with PBS, ADIPORED™ reagent (Lonza Walkersville, Inc., Walkersville, Md.) was carefully added into each well. The plates were read for intracellular lipids using a spectrofluorometer. The lipid fluorescence was normalized against the total cell count that was performed using DAPI staining. Following treatment, the lipid content in the treated sebocytes was determined to have increased by 27% compared to control untreated sebocytes. The increased lipid content was confirmed by determining the expression of SREBP-1, a lipid synthesis transcription factor.

keratosis pilaris (KP) = test: Topical treatment of keratosis pilaris (KP) in patients, severity grading; type: in vivo, human; conditions: formulation similar to that of Example 1, glitazone substituted for pioglitazone
From the text: Prior to treatment, the severity of the KP condition was graded. […]

| SMILES | results of Example 4 (sebocyte lipid content) repeated with another glitazone formulation (SEB-1 sebocytes) | results of Examples 2 and 3 (KP treatment) repeated with another glitazone formulation (keratosis pilaris (KP)) |
| --- | --- | --- |
| O=C1NC(=O)C(Cc2ccc3cc(OCc4ccccc4F)ccc3c2)S1 (stereo not drawn) [netoglitazone] | Results similar to those obtained in Examples 2 to 4 using pioglitazone | Results similar to those obtained in Examples 2 to 4 using pioglitazone |
| COc1ccc(Oc2cc(N(C)CCOc3ccc(CC4SC(=O)NC4=O)cc3)ncn2)cc1 (stereo not drawn) [lobeglitazone] | Results similar to those obtained in Examples 2 to 4 using pioglitazone | Results similar to those obtained in Examples 2 to 4 using pioglitazone |
| COc1ccc2nc(COc3ccc(CC4SC(=O)NC4=O)cc3)n(C)c2c1 (stereo not drawn) [rivoglitazone] | Results similar to those obtained in Examples 2 to 4 using pioglitazone | Results similar to those obtained in Examples 2 to 4 using pioglitazone |
